How the values were obtained:
BxPC-3 cells = test: Cell cycle analysis (propidium iodide, FACS); assay type: cell-based; conditions: 48 hours following treatment, 2 μM (1 μg) for 5 h, manual formulations
Protocol: 1.5×10^5 BxPC-3 cells were plated in 6-well plates (Nunc, UK) and left to adhere for 24 h. Cells were transferred to serum free media for 24-h, to ensure synchronisation of cells. Subsequently, cells were incubated with RALA/dFdCTP nanoparticles at a concentration of 2 μM (1 μg) for 5 h before removal of treatment media and the addition of fresh complete media. 48 h following treatment, cells were trypsinsed and fixed in ice-cold 70% ethanol for 1 hour at 4° C. Cells were washed twice in Phosphate Buffered Saline (PBS) for 5 min, before resuspension in 500 μL PBS and the addition of 50 μL of 100 μg/ml RNase (Invitrogen, UK). 10 minutes prior to running samples on fluorescence-activated cell sorting (FACS), 10 μl of a 100 μg/ml stock of propidium iodide (PI) was added. Controls include: untreated; dCTP (negative control); RALA/dCTP (RALA control); dFdCTP (drug control); and gemcitabine (comparator control).
A cell cycle analysis following treatment with RALA/dFdCTP was undertaken. If dFdCTP had been successfully delivered to cells, it would be incorporated during DNA polymerase, preventing DNA chain elongation. This would ultimately prevent cells from actively proliferating. This means that during cell cycling, the cycle will be arrested at the S-phase. Therefore, if there are a higher percentage of the cells in the (G0/G1+−S) phases than compared to the G2 phase, it is an indicator that dFdCTP has affected the cell cycle.

[1] = Ioka T, et al. 2013; cited from earlier work
red blood cell (RBC) = test: Haemolysis assay; assay type: cell-based; conditions: ovine RBC, equivalent of 10-30 μg dFdCTP, 1 h at 37° C., isotonic trehalose solution
Protocol: Defibrinated ovine whole blood (5 ml, TCS Biosciences Ltd, UK) was centrifuged at 500 g in citrate-phosphate buffer (15 ml, 0.1 M citric acid, C6HsO7, and 0.2 M disodium hydrogen phosphate, Na2HPO4) for 20 min to separate erythrocytes. The erythrocytes were subsequently washed three times with 20 mL of citrate-phosphate buffer by centrifugation and re-suspended in citrate-phosphate buffer solution at a concentration of 1×10^8 cells/mL. A Countess II automated cell counter (ThermoFisher, UK) was used to count erythrocytes by first diluting the erythrocyte suspension 1:10,000 in buffer. Subsequently, isotonic solutions (of osmolality in the range 290-310 mOsmol/kg) of RALA/dFdCTP (MR2.0) nanoparticles mixed with trehalose, or dFdCTP and trehalose was added to the erythrocyte suspension, with the equivalent of 10-30 μg dFdCTP added, and the solution incubated for 1 h at 37° C. Following incubation, the erythrocyte suspensions were centrifuged for 90 s at 400 g to form a cell pellet. Absorbance of the supernatant was measured via a Nanodrop 2000c UV-Vis spectrophotometer (Thermo Scientific, UK) at 541 nm. 1% Triton X-100 was used as a positive control representing 100% haemolysis; and citrate-phosphate buffer at pH 7.4 was used as a negative control.

Nc1ccn([C@@H]2O[C@H](CO)[C@@H](O)C2(F)F)c(=O)n1 [Gemcitabine, 2′,2′-difluoro-2′-deoxycytidine]
Cells in (G0/G1 + S) Phase (BxPC-3 cells): 60.2%
overall clinical response rate [1]: 6%

Nc1ccn([C@H]2C[C@H](O)[C@@H](COP(=O)(O)OP(=O)(O)OP(=O)(O)O)O2)c(=O)n1 [dCTP, deoxycytidine triphosphate]
Cells in (G0/G1 + S) Phase (BxPC-3 cells): 49.9%

Nc1ccn([C@@H]2O[C@H](COP(=O)(O)OP(=O)(O)OP(=O)(O)O)[C@@H](O)C2(F)F)c(=O)n1 [dFdCTP, 2′,2′-difluorodeoxycytidine 5′-triphosphate]
Cells in (G0/G1 + S) Phase (BxPC-3 cells): 66.4%
haemolysis (red blood cell (RBC)): > 20%

Reference: patent US20250082664A1, “NUCLEOSIDE FORMULATION” (PHION THERAPEUTICS LTD, priority 2021, published 2025)
